Experimental data taken from patent publication US20250152616A1, “COMPOSITIONS FOR AND METHODS OF TREATING, PREVENTING, AND/OR MITIGATING PAIN” (Duke University, priority 2022, published 2025).

Tested on: dissociated DRG neurons
Experiment: Fura-2 calcium imaging of dissociated DRG neurons stimulated with capsaicin
Type: cell-based, mouse
From the text: DRG were isolated from mice using a modified version of the previously described protocol (Perner C, et al. (2021) STAR Protoc. 2:100333). Briefly, mice were euthanized and dosed in 70% ethanol to prevent fur contamination. Mice were positioned prone, and an incision was made along the spine from the neck to the base of the tail. Under a dissecting microscope, the surrounding soft tissue of the spinal column was removed from the dorsal side by Friedman-Pearson Rongeurs (Fine Science Tools, Foster City, CA, Cat #16021-14) from the mid thoracic region to the lumbosacral joint. The vertebral bone surrounding the DRG was gently crushed and removed with rongeurs exposing the spinal cord. The DRG were carefully extracted near the foramen between the vertebral levels. L3 and L4 DRG were collected for analyses. Dissected DRG were placed directly into ice-cold DMEM-F12 medium (ThermoFisher, Cat #11320033) for in vitro culture, Trizol (ThermoFisher, Cat #15596018) for PCR analyses, or 4% PFA for histology. For cell culture experiments, collected DRG were digested in digestion solution comprised of collagenase type II (Worthington, Lakewood, NJ, Cat #LS004176) and dispase (1.5 mg/mL each) dissolved in DMEM/F12. DRG were agitated in a digestion solution on an orbital shaker at 60 rpm and 37° C. for 20 minutes and repeated thrice with fresh digestion solution. Next, the digestion solution was replaced with trypsin-EDTA (0.025%) in DMEM/F12 and incubated for an additional 15 min to disrupt the remaining cell-to-cell adhesions. The solution was then replaced with DMEM/F12 and FBS (1:3) to neutralize trypsin. DRG were triturated to create a cell suspension and gently layered onto 15% bovine serum albumin (BSA) solution without mixing and centrifuged for 6 min at 280 g with minimal acceleration and no deceleration to separate non-neuronal cells and debris (Owen D E, et al. (2012) Methods Mol Biol. 846:179-187). […]
Intracellular cytosolic Ca^2+ was evaluated by Fura-2 loaded DRG neurons (Khomula E V, et al. (2019) J Neurosci. 39:7061-7073). […]

Nc1ncnc2c1ncn2[C@@H]1O[C@H](CO)[C@@H](O)[C@H]1O [adenosine]
NGF-increased functional responses to capsaicin (Fura-2 average and peak intensity) (NGF 200 ng/mL 1 day, adenosine 5 μM for 5 min, capsaicin 100 nM): attenuated | functional activity of DRG neurons (normalized peak intensity, calcium imaging) (initial screening, two different concentrations of adenosine, capsaicin stimulation): decreased
